{
  "source": "ChEMBL document CHEMBL1201862",
  "about": "“PubChem BioAssay data set” (2004)",
  "key": {"[1]": {"assay": "Fluorescence Cell-Based Dose Response to Identify Inhibitors of Thrombin Receptor-Activating Peptide SFLLRN-Mediated P-Selectin Induction on Platelets. [Related pubchem assays: 1663 (Primary HTS), 1889 (retest at dose ), 1891 (counterscreen), 1678 (Project Summary)]", "format": "functional"}, "[2]": {"target": "Luciferin 4-monooxygenase (Photinus pyralis, UniProt P08659)", "sequence (P08659 whole entry)": "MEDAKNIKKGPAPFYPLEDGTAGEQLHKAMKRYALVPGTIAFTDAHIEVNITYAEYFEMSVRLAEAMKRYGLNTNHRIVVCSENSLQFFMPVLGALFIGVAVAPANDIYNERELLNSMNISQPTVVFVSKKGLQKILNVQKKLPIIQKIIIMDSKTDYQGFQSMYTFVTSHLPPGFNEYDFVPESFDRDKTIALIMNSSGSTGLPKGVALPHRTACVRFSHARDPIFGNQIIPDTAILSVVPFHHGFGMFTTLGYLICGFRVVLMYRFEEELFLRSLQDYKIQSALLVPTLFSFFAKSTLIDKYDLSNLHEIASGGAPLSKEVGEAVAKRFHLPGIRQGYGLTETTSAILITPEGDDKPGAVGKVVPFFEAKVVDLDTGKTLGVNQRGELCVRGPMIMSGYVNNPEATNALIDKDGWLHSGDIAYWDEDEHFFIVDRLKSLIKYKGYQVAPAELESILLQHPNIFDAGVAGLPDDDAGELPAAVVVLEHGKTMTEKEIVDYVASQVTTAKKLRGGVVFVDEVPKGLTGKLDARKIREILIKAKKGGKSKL", "assay": "inhibition of purified Photinus pyralis luciferase – biochemical, luminescence, dose response (AID 1891)"}, "[3]": {"assay": "Luminescence Cell-Based Dose Confirmation HTS to Identify Inhibitors of Platelet Dense Granule Release. [Related pubchem assays: 1663 (Primary HTS), 1678 (Summary of Project)]", "format": "functional"}, "Estrogen receptor beta [4]": {"target": "T1, Estrogen receptor beta (Homo sapiens, UniProt Q92731)", "T1 sequence (Q92731 whole entry)": "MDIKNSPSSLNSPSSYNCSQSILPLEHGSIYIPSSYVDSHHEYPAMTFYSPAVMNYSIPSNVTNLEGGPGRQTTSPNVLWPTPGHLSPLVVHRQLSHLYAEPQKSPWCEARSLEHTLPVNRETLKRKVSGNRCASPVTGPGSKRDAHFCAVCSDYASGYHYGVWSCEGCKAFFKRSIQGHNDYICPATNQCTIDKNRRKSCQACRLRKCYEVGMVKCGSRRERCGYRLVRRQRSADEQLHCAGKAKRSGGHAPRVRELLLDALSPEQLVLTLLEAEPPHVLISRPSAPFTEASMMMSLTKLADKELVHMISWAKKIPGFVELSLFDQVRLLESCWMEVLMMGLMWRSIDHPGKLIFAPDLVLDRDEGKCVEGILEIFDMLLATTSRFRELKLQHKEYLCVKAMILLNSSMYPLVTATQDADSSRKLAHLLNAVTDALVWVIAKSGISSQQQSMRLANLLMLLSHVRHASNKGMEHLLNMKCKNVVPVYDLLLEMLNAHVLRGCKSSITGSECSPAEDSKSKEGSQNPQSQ"}, "[5]": {"target": "DNA dC->dU-editing enzyme APOBEC-3G (Homo sapiens, UniProt Q9HC16)", "sequence (Q9HC16 whole entry)": "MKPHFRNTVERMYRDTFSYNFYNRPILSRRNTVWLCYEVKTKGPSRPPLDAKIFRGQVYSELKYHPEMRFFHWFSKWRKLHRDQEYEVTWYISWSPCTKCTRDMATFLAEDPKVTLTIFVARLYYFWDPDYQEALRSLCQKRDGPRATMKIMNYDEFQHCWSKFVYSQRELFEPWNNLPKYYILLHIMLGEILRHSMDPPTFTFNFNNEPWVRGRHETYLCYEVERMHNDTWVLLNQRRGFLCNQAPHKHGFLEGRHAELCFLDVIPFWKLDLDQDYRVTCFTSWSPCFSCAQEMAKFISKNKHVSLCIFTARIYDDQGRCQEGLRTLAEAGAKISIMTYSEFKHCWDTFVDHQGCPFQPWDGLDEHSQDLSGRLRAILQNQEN", "format": "functional"}, "[6]": {"target": "T2, Carboxy-terminal domain RNA polymerase II polypeptide A small phosphatase 1 (Homo sapiens, UniProt Q9GZU7)", "T2 sequence (Q9GZU7 whole entry)": "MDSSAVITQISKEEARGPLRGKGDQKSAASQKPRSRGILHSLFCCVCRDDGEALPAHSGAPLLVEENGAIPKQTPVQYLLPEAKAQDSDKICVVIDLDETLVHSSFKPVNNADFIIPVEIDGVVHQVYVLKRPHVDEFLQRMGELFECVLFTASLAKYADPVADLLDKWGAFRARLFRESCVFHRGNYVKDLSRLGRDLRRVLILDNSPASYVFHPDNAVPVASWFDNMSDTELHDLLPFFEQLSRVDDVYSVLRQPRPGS", "assay": "CTDSP1 inhibitors, concentration-response, biochemical, absorbance readout, ultra-high-throughput screen actives (AID 540297)", "format": "functional"}, "[7]": {"target": "DNA dC->dU-editing enzyme APOBEC-3A (Homo sapiens, UniProt P31941)", "sequence (P31941 whole entry)": "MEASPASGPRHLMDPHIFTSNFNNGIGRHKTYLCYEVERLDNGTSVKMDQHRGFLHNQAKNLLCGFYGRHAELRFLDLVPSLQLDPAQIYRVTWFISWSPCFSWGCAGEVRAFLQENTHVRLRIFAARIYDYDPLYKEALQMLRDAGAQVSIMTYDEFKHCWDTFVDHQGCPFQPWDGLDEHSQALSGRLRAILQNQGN", "assay": "Dose Response confirmation of small molecule APOBEC3A DNA Deaminase Inhibitors via a fluorescence-based single-stranded DNA deaminase assay. [Related pubchem assays (depositor defined):AID493011, AID493024]", "format": "functional"}, "[8]": {"target": "Voltage-gated inwardly rectifying potassium channel KCNH2 (Homo sapiens, UniProt Q12809)", "assay": "concentration-dependent hERG rescue from blockers – cell-based, thallium flux, dose response (AID 2121)", "format": "ADME"}, "[9]": {"assay": "NIH3T3 cell viability loss – ATP luminescence, mouse fibroblasts, counter-screen, dose response (AID 2010);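 further: cells exposed to compound for about 90 hours before reading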", "format": "functional, cell-based"}, "[10]": {"target": "T3, Polyadenylate-binding protein 1 (Homo sapiens, UniProt P11940)", "T3 sequence (P11940 whole entry)": "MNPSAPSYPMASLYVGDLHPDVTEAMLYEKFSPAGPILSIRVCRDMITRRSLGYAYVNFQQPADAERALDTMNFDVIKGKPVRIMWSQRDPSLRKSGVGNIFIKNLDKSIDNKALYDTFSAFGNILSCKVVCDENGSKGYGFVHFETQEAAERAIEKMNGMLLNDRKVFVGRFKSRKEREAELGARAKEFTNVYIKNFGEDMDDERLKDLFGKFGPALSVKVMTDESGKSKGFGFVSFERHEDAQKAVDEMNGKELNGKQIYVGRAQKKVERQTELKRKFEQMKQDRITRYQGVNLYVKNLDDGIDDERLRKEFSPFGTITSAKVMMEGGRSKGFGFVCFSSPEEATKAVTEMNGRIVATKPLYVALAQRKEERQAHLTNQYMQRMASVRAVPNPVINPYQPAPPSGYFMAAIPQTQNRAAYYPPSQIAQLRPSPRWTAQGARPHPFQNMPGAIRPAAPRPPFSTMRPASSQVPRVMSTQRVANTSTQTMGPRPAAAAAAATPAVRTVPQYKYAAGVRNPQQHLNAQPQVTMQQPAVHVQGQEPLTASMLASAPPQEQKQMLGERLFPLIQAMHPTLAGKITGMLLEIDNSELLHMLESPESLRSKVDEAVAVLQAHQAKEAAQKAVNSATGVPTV", "assay": "MLLE binding blockers, Cy5 peptide tracer – biochemical, fluorescence polarization, Cy5-PAM2 peptide, secondary, miRNA deadenylation inhibitor project, dose response (AID 602260)", "format": "functional", "conditions": "read-out: IC50_Mean"}, "[11]": {"assay": "Trypanosoma cruzi growth suppression in host cells – NIH3T3 host cells, beta-gal luminescence, confirmation (AID 2044);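 further: luminescent beta-galactosidase reporter signal from transgenic T. cruzi replicating inside host cells; inhibitors lower the luminescence signal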", "format": "functional, cell-based"}, "[12]": {"target": "Sphingosine 1-phosphate receptor 4 (Homo sapiens, UniProt O95977)", "sequence (O95977 whole entry)": "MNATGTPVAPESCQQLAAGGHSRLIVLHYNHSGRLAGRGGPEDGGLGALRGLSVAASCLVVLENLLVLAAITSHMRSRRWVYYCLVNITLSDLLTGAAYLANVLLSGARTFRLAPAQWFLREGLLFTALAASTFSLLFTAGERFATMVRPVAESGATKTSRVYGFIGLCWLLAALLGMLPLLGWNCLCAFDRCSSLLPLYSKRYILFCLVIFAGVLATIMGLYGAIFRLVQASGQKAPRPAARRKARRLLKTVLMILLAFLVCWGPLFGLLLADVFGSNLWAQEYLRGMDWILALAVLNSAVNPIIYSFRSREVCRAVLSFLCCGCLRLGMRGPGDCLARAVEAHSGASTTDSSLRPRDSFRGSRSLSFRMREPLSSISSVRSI", "assay": "Fluorescence dose response cell-based high throughput screening assay for antagonists of the Sphingosine 1-Phosphate Receptor 4 (S1P4). [Related pubchem assays: 1524 (Confirmation in triplicates.), 1510 (Primary screen.)]", "format": "functional"}, "[13]": {"target": "T3, Polyadenylate-binding protein 1", "assay": "MLLE domain peptide-binding blockers, IC50 – biochemical, fluorescence polarization, FITC-PAM2 peptide, dose response (AID 602259)", "format": "functional", "conditions": "read-out: IC50_Mean"}, "[14]": {"target": "Sphingosine 1-phosphate receptor 1 (Homo sapiens, UniProt P21453)", "sequence (P21453 whole entry)": "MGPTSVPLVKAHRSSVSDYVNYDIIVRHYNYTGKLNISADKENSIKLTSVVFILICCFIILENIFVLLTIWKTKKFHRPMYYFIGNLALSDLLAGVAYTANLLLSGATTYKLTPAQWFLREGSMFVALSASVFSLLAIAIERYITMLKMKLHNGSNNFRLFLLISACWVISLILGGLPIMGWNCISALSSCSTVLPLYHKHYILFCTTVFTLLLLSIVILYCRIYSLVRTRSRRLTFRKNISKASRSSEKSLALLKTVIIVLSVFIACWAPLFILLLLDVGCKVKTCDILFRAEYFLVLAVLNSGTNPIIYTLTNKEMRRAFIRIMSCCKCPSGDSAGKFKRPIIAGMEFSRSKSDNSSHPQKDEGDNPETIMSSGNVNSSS", "format": "functional"}, "[15]": {"target": "Sphingosine 1-phosphate receptor 2 (Homo sapiens, UniProt O95136)", "sequence (O95136 whole entry)": "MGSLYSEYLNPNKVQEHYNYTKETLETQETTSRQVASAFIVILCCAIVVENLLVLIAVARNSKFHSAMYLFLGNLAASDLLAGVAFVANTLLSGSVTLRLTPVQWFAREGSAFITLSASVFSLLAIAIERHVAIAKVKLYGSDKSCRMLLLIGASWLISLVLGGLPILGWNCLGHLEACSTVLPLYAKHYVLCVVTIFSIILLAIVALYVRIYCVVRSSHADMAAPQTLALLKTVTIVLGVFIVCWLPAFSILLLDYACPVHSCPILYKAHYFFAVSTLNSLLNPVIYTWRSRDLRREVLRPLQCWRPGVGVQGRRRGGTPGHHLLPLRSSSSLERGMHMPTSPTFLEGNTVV", "assay": "Dose Response Cell Based Assay for Agonists of the S1P2 Receptor of Purchased Analogues. [Related pubchem assays: 729, 843, 854, 736 ]", "format": "functional"}, "Estrogen receptor": {"target": "T4, Estrogen receptor (Homo sapiens, UniProt P03372)", "T4 sequence (P03372 whole entry)": "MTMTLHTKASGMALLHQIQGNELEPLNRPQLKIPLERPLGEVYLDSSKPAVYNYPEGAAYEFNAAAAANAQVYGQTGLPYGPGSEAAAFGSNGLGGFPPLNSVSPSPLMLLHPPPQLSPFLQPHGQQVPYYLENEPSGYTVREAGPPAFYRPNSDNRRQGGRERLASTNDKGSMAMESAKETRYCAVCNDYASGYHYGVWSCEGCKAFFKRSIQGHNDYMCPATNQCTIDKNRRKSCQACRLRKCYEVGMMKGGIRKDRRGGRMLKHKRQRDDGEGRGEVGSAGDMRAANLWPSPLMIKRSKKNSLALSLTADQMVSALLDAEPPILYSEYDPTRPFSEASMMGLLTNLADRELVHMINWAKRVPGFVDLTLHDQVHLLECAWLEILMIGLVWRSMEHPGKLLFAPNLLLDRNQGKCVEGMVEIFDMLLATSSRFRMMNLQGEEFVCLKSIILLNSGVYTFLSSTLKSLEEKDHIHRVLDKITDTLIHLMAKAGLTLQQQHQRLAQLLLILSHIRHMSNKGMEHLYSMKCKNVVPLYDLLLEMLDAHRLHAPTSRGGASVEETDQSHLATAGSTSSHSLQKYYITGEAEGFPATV", "assay": "ERα coactivator recruitment enhancers – biochemical, TR-FRET, ERα LBD, dose response (AID 737)"}, "Large T antigen": {"target": "Large T antigen (Simian virus 40, UniProt P03070)", "sequence (P03070 whole entry)": "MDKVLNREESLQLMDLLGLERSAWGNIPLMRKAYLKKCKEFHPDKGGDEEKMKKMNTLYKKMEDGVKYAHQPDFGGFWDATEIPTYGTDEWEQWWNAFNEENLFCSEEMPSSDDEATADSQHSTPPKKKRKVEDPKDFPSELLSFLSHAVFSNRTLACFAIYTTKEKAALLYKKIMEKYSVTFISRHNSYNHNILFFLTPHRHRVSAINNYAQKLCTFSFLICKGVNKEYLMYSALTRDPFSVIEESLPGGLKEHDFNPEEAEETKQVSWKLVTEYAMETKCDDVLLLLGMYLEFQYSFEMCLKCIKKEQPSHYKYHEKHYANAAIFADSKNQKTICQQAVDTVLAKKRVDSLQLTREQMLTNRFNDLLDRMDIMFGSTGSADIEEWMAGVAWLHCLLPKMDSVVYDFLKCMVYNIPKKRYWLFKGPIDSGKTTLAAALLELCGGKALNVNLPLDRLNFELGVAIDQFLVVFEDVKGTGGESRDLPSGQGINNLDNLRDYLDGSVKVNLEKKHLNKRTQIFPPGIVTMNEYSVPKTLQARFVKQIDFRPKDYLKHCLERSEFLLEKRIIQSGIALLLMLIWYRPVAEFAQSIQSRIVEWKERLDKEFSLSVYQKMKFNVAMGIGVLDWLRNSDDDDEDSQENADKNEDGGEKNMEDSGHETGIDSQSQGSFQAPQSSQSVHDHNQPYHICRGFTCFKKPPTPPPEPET", "format": "functional, Betapolyomavirus macacae"}, "Estrogen receptor beta [16]": {"target": "T1, Estrogen receptor beta", "assay": "blockers of SRC-3 recruitment to ERβ – biochemical, ELISA, streptavidin-HRP readout, orthogonal assay, confirmation (AID 1060)"}, "[17]": {"assay": "microbe, parasite or virus in culture", "format": "functional", "conditions": "Mycobacterium tuberculosis"}, "[18]": {"assay": "viability of HCT116 lacking mutant beta-catenin – cell-based, human colon tumor, dose response (AID 1045);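 further: cells exposed to compound for 60 hours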", "format": "functional"}, "Ephrin type-A receptor 4": {"target": "Ephrin type-A receptor 4 (Mus musculus, UniProt Q03137)", "assay": "EphA4 ligand-binding antagonists – biochemical, colorimetric, mouse EphA4, primary screen (AID 689)", "format": "functional"}, "[19]": {"target": "Heat shock protein HSP 90-alpha (Homo sapiens, UniProt P07900)", "format": "functional, organism-based"}, "[20]": {"assay": "viability of PTEN-deleted HCT116 cells – cell-based, HCT116 PTEN knockout, dose response (AID 1047);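 further: cells exposed to compound for 60 hours before readout; potency for loss of cell viability measured by luminescence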", "format": "functional"}, "Cytochrome P450 2D6": {"target": "Cytochrome P450 2D6 (Homo sapiens, UniProt P10635)", "sequence (P10635 whole entry)": "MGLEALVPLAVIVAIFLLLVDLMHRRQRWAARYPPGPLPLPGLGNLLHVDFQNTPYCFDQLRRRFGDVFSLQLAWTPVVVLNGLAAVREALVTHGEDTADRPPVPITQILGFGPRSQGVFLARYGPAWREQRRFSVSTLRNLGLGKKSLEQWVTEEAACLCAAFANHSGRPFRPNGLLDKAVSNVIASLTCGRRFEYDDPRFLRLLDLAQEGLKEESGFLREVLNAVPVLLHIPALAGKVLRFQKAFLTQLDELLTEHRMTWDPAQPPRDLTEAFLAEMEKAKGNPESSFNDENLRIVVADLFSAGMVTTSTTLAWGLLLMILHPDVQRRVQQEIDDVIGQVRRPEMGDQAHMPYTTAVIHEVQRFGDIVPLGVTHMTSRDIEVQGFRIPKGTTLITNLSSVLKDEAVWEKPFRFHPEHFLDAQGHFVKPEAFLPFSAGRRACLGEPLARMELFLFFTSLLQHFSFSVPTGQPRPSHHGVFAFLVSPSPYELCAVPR"}},
  "note": "Activity calls are given as the source filed them.",
  "data": [
    {"smiles": "CCS(=O)(=O)Nc1ccc(-c2nnc(SCC(=O)OC)o2)cc1", "values": [
      {"measurement": "EC50", "setting": "[1]", "value": "< 30 µM (active)"},
      {"measurement": "EC50", "setting": "[2]", "value": "> 112 µM (not active)"},
      {"measurement": "EC50", "setting": "[3]", "value": "6.33 µM (active)"}
    ]},
    {"smiles": "CCCCCCNC(=O)c1cc(-c2ccco2)nc2ccccc12", "values": [
      {"measurement": "IC50", "setting": "Estrogen receptor beta [4]", "value": "2.6 µM (active)"},
      {"measurement": "IC50", "setting": "[5]", "value": "16 µM (active)"},
      {"measurement": "IC50", "setting": "[6]", "value": "5.1 µM (active)"},
      {"measurement": "IC50", "setting": "[7]", "value": "13.6 µM (active)"}
    ]},
    {"smiles": "O=C(NC(=S)Nc1ncc(Br)cc1Br)c1ccccc1", "values": [
      {"measurement": "EC50", "setting": "[8]", "value": "1.46 µM (active)"}
    ]},
    {"smiles": "Cc1ccnc(N2C(=O)c3cccc4c([N+](=O)[O-])ccc(c34)C2=O)c1", "values": [
      {"measurement": "EC50", "setting": "[9]", "value": "> 30 µM (not active)"},
      {"measurement": "IC50", "setting": "[10]", "value": "> 66 µM (inactive)"},
      {"measurement": "EC50", "setting": "[11]", "value": "4.58 µM (active)"},
      {"measurement": "IC50", "setting": "[12]", "value": "1.62 µM (active)"},
      {"measurement": "IC50", "setting": "[13]", "value": "23.4 µM (inactive)"},
      {"measurement": "IC50", "setting": "[14]", "value": "3.43 µM (active)"}
    ]},
    {"smiles": "CCC1(CC)NC(=O)N(CC(=O)OCC(=O)c2cc(C)n(Cc3ccccc3)c2C)C1=O", "values": [
      {"measurement": "EC50", "setting": "[15]", "value": "> 30 µM (not active)"}
    ]},
    {"smiles": "CCOc1ccccc1N1CSC2=C(C#N)C(c3c(OC)ccc4ccccc34)CC(=O)N2C1", "note": "(centres undefined)", "values": [
      {"measurement": "EC50", "setting": "Estrogen receptor", "value": "16.1 µM (active)"},
      {"measurement": "IC50", "setting": "Large T antigen", "value": "78.8 µM (active)"}
    ]},
    {"smiles": "O=C(CCCn1c(=S)[nH]c2ccccc2c1=O)N1CCN(c2ccc(C(F)(F)F)cc2)CC1", "values": [
      {"measurement": "IC50", "setting": "Estrogen receptor beta [16]", "value": "33 µM (not active)"}
    ]},
    {"smiles": "O=[N+]([O-])/C=C/c1cn(Cc2ccccc2)c2ccccc12", "values": [
      {"measurement": "CC50", "setting": "[17]", "value": "> 40 µM (active)"},
      {"measurement": "EC50", "setting": "[18]", "value": "13.2 µM (active)"},
      {"measurement": "IC50", "setting": "Ephrin type-A receptor 4", "value": "2.3 µM (active)"},
      {"measurement": "AC50", "setting": "[19]", "value": "6.43 µM (active)"},
      {"measurement": "EC50", "setting": "[20]", "value": "15.8 µM (active)"},
      {"measurement": "AC50", "setting": "Cytochrome P450 2D6", "value": "15.8 µM (inconclusive)"}
    ]}
  ]
}
